The record followed here is US9169209B2, “Compounds and compositions for the inhibition of NAMPT” (FORMA TM, LLC, priority 2011, dated 2015).

One test concerns the target NAMPT (Homo sapiens (Human), UniProt P43490). Put plainly: Biochemical Inhibition Assay (NAMPT enzymatic reaction, NMN quantified by mass spectrometry). As to conditions: recombinant His-tagged NAMPT, 33 nM; 1 μM NAM; read-out: Biochem IC50. The method, then: Recombinant His-tagged NAMPT was produced in E. coli cells, purified over a Ni column, and further purified over a size-exclusion column by XTAL Biostructures.
The NAMPT enzymatic reactions were carried out in Buffer A (50 mM Hepes pH 7.5, 50 mM NaCl, 5 mM MgCl2, and 1 mM THP) in 96-well V-bottom plates. The compound titrations were performed in a separate dilution plate by serially diluting the compounds in DMSO to make a 100× stock. […] The compound and enzyme mix was incubated for 15 minutes at room temperature, then 10 μL of 10× substrate and co-factors in Buffer A were added to the test well to make a final concentration of 1 μM NAM, 100 μM 5-Phospho-D-ribose 1-diphosphate (PRPP), and 2.5 mM Adenosine 5′-triphosphate (ATP). The reaction was allowed to proceed for 30 minutes at room temperature, then was quenched with the addition of 11 μL of a solution of formic acid and L-Cystathionine to make a final concentration of 1% formic acid and 10 μM L-Cystathionine. Background and signal strength was determined by addition (or non-addition) of a serial dilution of NMN to a pre-quenched enzyme and cofactor mix.
A mass spectrometry-based assay was used to measure the NAMPT reaction product (NMN) and the internal control (L-Cystathionine). NMN and L-Cystathionine were detected using the services of Biocius Lifesciences with the RapidFire system. In short, the NMN and L-Cystathionine are bound to a graphitic carbon cartridge in 0.1% formic acid, eluted in 30% acetonitrile buffer, and injected into a Sciex 4000 mass spectrometer. The components of the sample were ionized with electrospray ionization and the positive ions were detected. […] The fragments are quantified and the analyzed by the following method.
First the NMN signal is normalized to the L-Cystathionine signal by dividing the NMN signal by the L-Cystathionine signal for each well. The signal from the background wells are averaged and subtracted from the test plates.
Wherein x denotes the average signal of the compound treated wells and y denotes the average signal of the DMSO treated wells.
IC50s are Determined Using Excel and this Formula.
Wherein X denotes the compound concentration 1, Y denotes the compound concentration 2, XX denotes the % inhibition at compound concentration 1 (X), and YY denotes the % inhibition at compound concentration 2 (Y).

The subject of another test is A2780 cells. Kind of test: In-Vitro Cell Proliferation Assay (SRB, 72 hours). It counts as cell-based. The settings on record: Homo sapiens, A2780, 72 h, A2780 cells, 72 hours, sulforhodamine B; read-out: A2780 IC50. The method, then: After overnight incubation at 37° C. and 5% CO2, the compound titrations were performed in a separate dilution plate by serially diluting the compounds in DMSO to make a 1000× stock. The compounds were then further diluted to 10× final concentration in culture media, whereupon 20 μL of each dilution was added to the plated cells with controls (e.g. DMSO and blank) to make a final volume of 200 μL. The final DMSO concentration in each well was 0.1%. The plates were then incubated for 72 hours at 37° C. in a 5% CO2 incubator. The number of viable cells was then assessed using sulforhodamine B (SRB) assay. Cells were fixed at 4° C. for 1 hour with the addition of 50 μL 30% trichloroacetic acid (TCA) to make a final concentration of 6% TCA. The plates were washed four times with H2O and allowed to dry for at least 1 hour, whereupon 100 μL of a 4% SRB in 1% acetic acid solution was added to each well and incubated at room temperature for at least 30 minutes. The plates were then washed three times with 1% acetic acid, dried, and treated with 100 μL of 10 mM Tris-Base solution. The plates were then read in a microplate reader at an absorbance of 570 nm. Background was generated on a separate plate with media only.
First, the signals from the background plate are averaged and then the background was subtracted from the test plates.
wherein x denotes the average signal of the compound-treated cells and y denotes the average signal of the DMSO-treated cells.
wherein X denotes the compound concentration 1, Y denotes the compound concentration 2, XX denotes the % inhibition at compound concentration 1 (X), and YY denotes the % inhibition at compound concentration 2 (Y).

Structures are written as SMILES.

Chain of NAMPT (P43490 whole entry): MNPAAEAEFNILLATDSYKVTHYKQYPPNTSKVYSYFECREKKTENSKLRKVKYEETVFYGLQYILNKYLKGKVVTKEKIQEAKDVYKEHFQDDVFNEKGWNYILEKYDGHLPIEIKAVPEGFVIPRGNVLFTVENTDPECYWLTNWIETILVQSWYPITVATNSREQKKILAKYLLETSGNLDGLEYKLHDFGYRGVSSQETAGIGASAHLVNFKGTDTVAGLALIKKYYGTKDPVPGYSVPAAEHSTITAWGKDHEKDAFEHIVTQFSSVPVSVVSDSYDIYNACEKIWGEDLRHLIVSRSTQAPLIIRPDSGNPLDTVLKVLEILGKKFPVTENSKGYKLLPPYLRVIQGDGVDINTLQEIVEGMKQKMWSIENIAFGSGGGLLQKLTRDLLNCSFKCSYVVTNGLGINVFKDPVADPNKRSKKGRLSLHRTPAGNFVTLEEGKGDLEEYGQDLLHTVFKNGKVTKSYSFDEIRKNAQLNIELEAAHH

With `O=C(/C=C/c1cccnc1)Nc1ccc(S(=O)(=O)c2ccc(-c3ccccc3)cc2)cc1` [(2E)-N-{4-[(4-phenylbenzene)sulfonyl]phenyl}-3-(pyridin-3-yl)prop-2-enamide], the values for the IC50 at NAMPT and in the test on A2780 cells were 4.5 nM and 100 to 1000 nM, respectively.
In the same order, the values of `O=C(/C=C/c1cccnc1)Nc1ccc(S(=O)(=O)c2cccc3ccsc23)cc1` [(2E)-N-[4-(1-benzothiophene-7-sulfonyl)phenyl]-3-(pyridin-3-yl)prop-2-enamide] are 16.1 nM and 106 nM.
In the same order, the values of `COc1cc(Cl)cc(S(=O)(=O)c2ccc(NC(=O)/C=C/c3cccnc3)cc2)c1` [(2E)-N-{4-[(3-chloro-5-methoxybenzene)sulfonyl]phenyl}-3-(pyridin-3-yl)prop-2-enamide] are 22 nM and 100 nM.
As to `CCN(CC)C(=O)c1cc(Cl)cc(S(=O)(=O)c2ccc(NC(=O)/C=C/c3cccnc3)cc2)c1` [3-chloro-N,N-diethyl-5-({4-[(2E)-3-(pyridin-3-yl)prop-2-enamido]benzene}sulfonyl)benzamide], the IC50 on NAMPT stood at 19.4 nM; in the test on A2780 cells, 27.4 nM.
`CC(C)COc1cc(F)cc(S(=O)(=O)c2ccc(NC(=O)/C=C/c3cccnc3)cc2)c1` [(2E)-N-(4-{[3-fluoro-5-(2-methylpropoxy)benzene]sulfonyl}phenyl)-3-(pyridin-3-yl)prop-2-enamide]: the 50% inhibitory concentration (IC50) was 35.4 nM on NAMPT and 61.3 nM with A2780 cells.
In the same order, the values of `O=C(/C=C/c1cccnc1)Nc1ccc(S(=O)(=O)c2cncc(N3CCCC3)c2)cc1` [(2E)-3-(pyridin-3-yl)-N-{4-[5-(pyrrolidin-1-yl)pyridine-3-sulfonyl]phenyl}prop-2-enamide] are 1.4 nM and 51.1 nM.
For the molecule `CC(C)COc1cccc(S(=O)(=O)c2ccc(NC(=O)/C=C/c3cccnc3)cc2)c1` [(2E)-N-(4-{[3-(2-methylpropoxy)benzene]sulfonyl}phenyl)-3-(pyridin-3-yl)prop-2-enamide], the IC50 on NAMPT was 56.7 nM; in the test on A2780 cells, 100 to 1000 nM.
In the same order, the values of `O=C(/C=C/c1cccnc1)Nc1ccc(S(=O)(=O)c2cccc3ccccc23)cc1` [(2E)-N-[4-(naphthalene-1-sulfonyl)phenyl]-3-(pyridin-3-yl)prop-2-enamide] are 4.2 nM and 18.1 nM.
In the same order, the values of `CCOc1ccc(Cl)cc1S(=O)(=O)c1ccc(NC(=O)/C=C/c2cccnc2)cc1` [(2E)-N-{4-[(5-chloro-2-ethoxybenzene)sulfonyl]phenyl}-3-(pyridin-3-yl)prop-2-enamide] are 12.3 nM and 5.59 nM.
On to `O=C(/C=C/c1cccnc1)NCc1ccc(S(=O)(=O)N2CC3CCC(C2)O3)cc1` [(2E)-N-[(4-{8-oxa-3-azabicyclo[3.2.1]octane-3-sulfonyl}phenyl)methyl]-3-(pyridin-3-yl)prop-2-enamide], for which the results for the half-maximal inhibitory concentration (IC50) at NAMPT and with A2780 cells were 3 nM and 386 nM, respectively.
In the same order, the values of `Cc1ccc(S(=O)(=O)c2ccc(NC(=O)/C=C/c3cccnc3)cc2)cc1Cl` [(2E)-N-{4-[(3-chloro-4-methylbenzene)sulfonyl]phenyl}-3-(pyridin-3-yl)prop-2-enamide] are 8.6 nM and 199 nM.
In the same order, the values of `O=C(/C=C/c1cccnc1)Nc1ccc(S(=O)(=O)c2cccc3c2OCC3)cc1` [(2E)-N-[4-(2,3-dihydro-1-benzofuran-7-sulfonyl)phenyl]-3-(pyridin-3-yl)prop-2-enamide] are 4.9 nM and 36.1 nM.
As for `Cc1ccc(S(=O)(=O)c2ccc(NC(=O)/C=C/c3cccnc3)cc2)cc1F` [(2E)-N-{4-[(3-fluoro-4-methylbenzene)sulfonyl]phenyl}-3-(pyridin-3-yl)prop-2-enamide], the IC50 was found to be 27.6 nM at NAMPT and 196 nM in the test with A2780 cells.
Take `O=C(/C=C/c1cccnc1)Nc1ccc(S(=O)(=O)c2cccc3[nH]ccc23)cc1` [(2E)-N-[4-(1H-indole-4-sulfonyl)phenyl]-3-(pyridin-3-yl)prop-2-enamide]: the IC50 was 2.3 nM on NAMPT and 40.1 nM in the test with A2780 cells.
For the molecule `O=C(/C=C/c1cccnc1)Nc1ccc(S(=O)(=O)c2ccc(OC(F)(F)F)cc2)cc1` [(2E)-3-(pyridin-3-yl)-N-(4-{[4-(trifluoromethoxy)benzene]sulfonyl}phenyl)prop-2-enamide], the IC50 was 167 nM on NAMPT and 100 to 1000 nM with A2780 cells.
As to `COc1c(C)cc(S(=O)(=O)c2ccc(NC(=O)/C=C/c3cccnc3)cc2)cc1C` [(2E)-N-{4-[(4-methoxy-3,5-dimethylbenzene)sulfonyl]phenyl}-3-(pyridin-3-yl)prop-2-enamide], the results for the IC50 on NAMPT and in the test with A2780 cells were 6.7 nM and 49.5 nM, respectively.
In the same order, the values of `CCCOc1ccc(S(=O)(=O)c2ccc(NC(=O)/C=C/c3cccnc3)cc2)cc1Cl` [(2E)-N-{4-[(3-chloro-4-propoxybenzene)sulfonyl]phenyl}-3-(pyridin-3-yl)prop-2-enamide] are 5.6 nM and 100 to 1000 nM.
In the same order, the values of `Cn1ncc2cccc(S(=O)(=O)c3ccc(NC(=O)/C=C/c4cccnc4)cc3)c21` [(2E)-N-[4-(1-methyl-1H-indazole-7-sulfonyl)phenyl]-3-(pyridin-3-yl)prop-2-enamide] are 8.9 nM and 100 to 1000 nM.
In the same order, the values of `O=C(/C=C/c1cccnc1)Nc1ccc(S(=O)(=O)c2ccccc2)cc1` [(2E)-N-[4-(benzenesulfonyl)phenyl]-3-(pyridin-3-yl)prop-2-enamide] are 4 nM and 81 nM.
Take `Cc1cncc(S(=O)(=O)c2ccc(NC(=O)/C=C/c3cccnc3)cc2)c1` [(2E)-N-[4-(5-methylpyridine-3-sulfonyl)phenyl]-3-(pyridin-3-yl)prop-2-enamide]: the IC50 was 18.1 nM on NAMPT and 74.4 nM in the test with A2780 cells.
In the same order, the values of `COc1ccc(S(=O)(=O)c2ccc(NC(=O)/C=C/c3cccnc3)cc2)cc1C` [(2E)-N-{4-[(4-methoxy-3-methylbenzene)sulfonyl]phenyl}-3-(pyridin-3-yl)prop-2-enamide] are 17.1 nM and 116 nM.
On to `Cc1ccc(F)cc1S(=O)(=O)c1ccc(NC(=O)/C=C/c2cccnc2)cc1` [(2E)-N-{4-[(5-fluoro-2-methylbenzene)sulfonyl]phenyl}-3-(pyridin-3-yl)prop-2-enamide], for which the values for the concentration for half-maximal inhibition (IC50) at NAMPT and in the test on A2780 cells were 7.4 nM and 90.1 nM, respectively.
In the same order, the values of `O=C(/C=C/c1cccnc1)Nc1ccc(S(=O)(=O)c2cccc3cccnc23)cc1` [(2E)-3-(pyridin-3-yl)-N-[4-(quinoline-8-sulfonyl)phenyl]prop-2-enamide] are 3.6 nM and 12.2 nM.
Take `O=C(/C=C/c1cccnc1)Nc1ccc(S(=O)(=O)c2cccc3c2oc2ccccc23)cc1` [(2E)-N-(4-{8-oxatricyclo[7.4.0.0^2,^7]trideca-1(13),2,4,6,9,11-hexaene-6-sulfonyl}phenyl)-3-(pyridin-3-yl)prop-2-enamide]: the IC50 on NAMPT amounted to 3.5 nM; in the test with A2780 cells, 7.3 nM.
In the same order, the values of `O=C(/C=C/c1cccnc1)Nc1ccc(S(=O)(=O)c2ccc3c(c2)OCO3)cc1` [(2E)-N-[4-(2H-1,3-benzodioxole-5-sulfonyl)phenyl]-3-(pyridin-3-yl)prop-2-enamide] are 9.9 nM and 100 to 1000 nM.
In the same order, the values of `Cc1ccc(S(=O)(=O)c2ccc(NC(=O)/C=C/c3cccnc3)cc2)s1` [(2E)-N-[4-(5-methylthiophene-2-sulfonyl)phenyl]-3-(pyridin-3-yl)prop-2-enamide] are 16.6 nM and 100 to 1000 nM.
